Measurements reported in PubChem BioAssay (NCI).
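Method: 48-hour compound exposure of cells in 96-well plates, five concentrations, linear interpolation of endpoints. GI50 marks 50% less growth. TGI denotes the concentration required for complete inhibition of growth.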

What was measured:
Experiment in all cases: inhibition of tumour cell growth, NCI panel, 48 h
[1] = system: A549 NSCLC
[2] = system: HT29 colon
[3] = system: IGROV1 ovarian
[4] = system: MDA-MB-231 breast
[5] = system: MDA-MB-435
[6] = system: MOLT-4 leukemia
[7] = system: RPMI-8226 leukemia
[8] = system: SF-268 CNS
[9] = system: SNB-75 CNS
[10] = system: UO-31 renal

CCS(=O)(=O)c1ccc(OC)c(Nc2ncc(-c3ccccc3Cl)o2)c1
GI50 [1]: 10 µM | TGI [1]: > 25 µM | GI50 [2]: 8.01 µM | TGI [2]: > 20.5 µM | GI50 [3]: 14.4 µM | TGI [3]: > 25 µM | GI50 [4]: 11.4 µM | TGI [4]: > 25 µM | GI50 [5]: 6.73 µM | TGI [5]: > 22.1 µM | GI50 [6]: 14.1 µM | TGI [6]: > 25 µM | GI50 [7]: 13.4 µM | TGI [7]: > 25 µM | GI50 [8]: 11.7 µM | TGI [8]: > 25 µM | GI50 [9]: 9.11 µM | TGI [9]: 24.6 µM | GI50 [10]: 6.37 µM | TGI [10]: > 25 µM

N#CN1CC[C@H](C(=O)Nc2cc3cc(C(N)=O)ccc3cn2)C1
GI50 [1]: 0.527 µM | TGI [1]: > 100 µM | GI50 [2]: 0.144 µM | TGI [2]: 1.16 µM | GI50 [3]: 0.387 µM | TGI [3]: > 25.3 µM | GI50 [4]: 0.0995 µM | TGI [4]: > 24.5 µM | GI50 [5]: 0.045 µM | TGI [5]: 13.2 µM | GI50 [6]: 0.0488 µM | GI50 [7]: 0.272 µM | TGI [7]: 1.46 µM | GI50 [8]: 0.0732 µM | TGI [8]: 24.3 µM | GI50 [9]: 0.0649 µM | TGI [9]: 0.512 µM | GI50 [10]: 0.107 µM | TGI [10]: 0.518 µM

CC(=O)OC1CC[C@@]2(C)C(CC[C@]3(C)C2CC=C2[C@@H]4C(C)[C@H](C)CCC4(C)CCC23C)[C@@]1(C)C(=O)O (some centres undefined)
TGI [1]: 45.6 µM | TGI [2]: 47.4 µM | TGI [3]: 46.9 µM | TGI [4]: 49.6 µM | TGI [5]: 40.6 µM | TGI [6]: 69.6 µM | TGI [7]: 64.8 µM | TGI [8]: 60.5 µM | TGI [9]: 35.8 µM | TGI [10]: 39.9 µM

O=c1oc2ccc(-c3ccc(F)cc3F)cc2c(=O)n1-c1ccc(Cl)c(C(F)(F)F)c1
GI50 [1]: 3.33 µM | TGI [1]: > 100 µM | GI50 [2]: 3.07 µM | TGI [2]: > 100 µM | GI50 [3]: 3.14 µM | TGI [3]: > 100 µM | GI50 [4]: 2.25 µM | TGI [4]: 6.93 µM | GI50 [5]: 3.07 µM | TGI [5]: 9.83 µM | GI50 [6]: 2.33 µM | TGI [6]: 5.45 µM | GI50 [7]: 2.1 µM | TGI [7]: 5.9 µM | GI50 [8]: 2.51 µM | TGI [8]: 9.13 µM | GI50 [9]: 1.7 µM | TGI [9]: 4.2 µM | GI50 [10]: 2.44 µM | TGI [10]: 8.4 µM

Oc1[nH]c2ccccc2c1N=Nc1c(F)c(F)c(F)c(F)c1F
TGI [1]: > 100 µM | TGI [2]: > 100 µM | TGI [3]: > 100 µM | TGI [4]: > 100 µM | TGI [5]: > 100 µM | TGI [6]: 31.8 µM | TGI [7]: 25.4 µM | TGI [8]: > 100 µM | TGI [9]: > 100 µM | TGI [10]: > 91.8 µM

Cc1cn(-c2ccc(S(C)(=O)=O)cc2)c(-c2ccc(Cl)cc2)n1
GI50 [1]: > 100 µM | TGI [1]: > 100 µM | GI50 [2]: > 100 µM | TGI [2]: > 100 µM | GI50 [3]: > 100 µM | TGI [3]: > 100 µM | GI50 [4]: > 100 µM | TGI [4]: > 100 µM | GI50 [5]: > 100 µM | TGI [5]: > 100 µM | GI50 [6]: > 100 µM | TGI [6]: > 100 µM | GI50 [7]: > 100 µM | TGI [7]: > 100 µM | GI50 [8]: > 100 µM | TGI [8]: > 100 µM | GI50 [9]: > 100 µM | TGI [9]: > 100 µM | GI50 [10]: > 100 µM | TGI [10]: > 100 µM

O=S(=O)(Nc1ccc(F)c(Cl)c1)c1ccc(-c2cnc(C3CC3)o2)cc1
GI50 [1]: 0.773 µM | TGI [1]: 13.1 µM | GI50 [2]: 0.259 µM | TGI [2]: 2.56 µM | GI50 [3]: 0.418 µM | TGI [3]: 12.3 µM | GI50 [4]: 0.727 µM | TGI [4]: 11 µM | GI50 [5]: 0.0313 µM | TGI [5]: 0.187 µM | GI50 [6]: 0.396 µM | TGI [6]: 88.2 µM | GI50 [7]: 0.388 µM | TGI [7]: > 31.9 µM | GI50 [8]: 1.24 µM | TGI [8]: 11.3 µM | GI50 [9]: 0.137 µM | TGI [9]: 0.547 µM | GI50 [10]: 0.584 µM | TGI [10]: 6.37 µM

COc1cc(/C=C/c2cc(/C=C/c3ccc(O)c(OC)c3)n(C(=O)Nc3ccc(Cl)cc3)n2)ccc1O
GI50 [1]: 0.653 µM | TGI [1]: 10.3 µM | GI50 [2]: 2.58 µM | TGI [2]: 6.26 µM | GI50 [3]: 0.661 µM | TGI [3]: 4.66 µM | GI50 [4]: 0.975 µM | TGI [4]: 10.7 µM | GI50 [5]: 0.149 µM | TGI [5]: 0.392 µM | GI50 [6]: 0.374 µM | TGI [6]: 3.47 µM | GI50 [7]: 0.376 µM | TGI [7]: 2.48 µM | GI50 [8]: 0.58 µM | TGI [8]: 4.2 µM | GI50 [9]: 0.444 µM | TGI [9]: 2.25 µM | GI50 [10]: 0.375 µM | TGI [10]: 3.16 µM

COc1cc(C2C3=C(COC3=O)N(CCO)c3cc4c(cc32)OCO4)cc(OC)c1O (centres undefined)
GI50 [1]: 5.62 µM | TGI [1]: > 50 µM | GI50 [2]: 1.38 µM | TGI [2]: 5.32 µM | GI50 [3]: 1.47 µM | TGI [3]: 6.08 µM | GI50 [4]: 6.07 µM | TGI [4]: 46.2 µM | GI50 [5]: 0.343 µM | TGI [5]: 1.53 µM | GI50 [6]: 2.15 µM | TGI [6]: > 24.9 µM | GI50 [7]: 1.57 µM | TGI [7]: > 50 µM | GI50 [8]: 2.18 µM | TGI [8]: > 50 µM | GI50 [9]: 1.12 µM | TGI [9]: 3.51 µM | GI50 [10]: 2.02 µM | TGI [10]: > 37.2 µM

CC(=O)c1cc(C(=O)c2ccc3c(c2)Sc2ccccc2N3)c2c(C)cccn12
GI50 [1]: 0.265 µM | TGI [1]: 40.4 µM | GI50 [2]: 0.272 µM | TGI [2]: 1.8 µM | GI50 [3]: 0.621 µM | TGI [3]: > 100 µM | GI50 [4]: 0.488 µM | TGI [4]: 10.6 µM | GI50 [5]: 0.0464 µM | TGI [5]: 0.275 µM | GI50 [6]: 0.556 µM | TGI [6]: > 100 µM | GI50 [7]: 0.412 µM | TGI [7]: 83.4 µM | GI50 [8]: 0.915 µM | TGI [8]: > 100 µM | GI50 [9]: 0.178 µM | TGI [9]: 1.04 µM | GI50 [10]: 0.925 µM | TGI [10]: 98.4 µM

Cc1cc(Nc2cc(N3CCN(C)CC3)nc(Sc3ccc(NC(=O)C4CC4)cc3)n2)n[nH]1
GI50 [1]: 2.18 µM | TGI [1]: > 10 µM | GI50 [2]: 1.18 µM | TGI [2]: > 10 µM | GI50 [3]: 4.82 µM | TGI [3]: > 10 µM | GI50 [4]: 3.98 µM | TGI [4]: > 10 µM | GI50 [5]: 2.11 µM | TGI [5]: > 10 µM | GI50 [6]: 4.21 µM | TGI [6]: > 10 µM | GI50 [7]: 4.02 µM | TGI [7]: > 10 µM | GI50 [8]: 5.52 µM | TGI [8]: > 10 µM | GI50 [9]: 2.71 µM | TGI [9]: > 10 µM | GI50 [10]: 3.54 µM | TGI [10]: > 10 µM

Cc1cccc(NC(=O)/C=C/c2ccc([N+](=O)[O-])cc2)c1
TGI [1]: > 56.2 µM | TGI [2]: > 70.3 µM | TGI [3]: > 53.7 µM | TGI [4]: > 52.8 µM | TGI [5]: > 52.3 µM | TGI [6]: > 65.4 µM | TGI [7]: > 68.8 µM | TGI [8]: > 76.8 µM | TGI [9]: > 60.4 µM | TGI [10]: > 50.4 µM

C#COc1cccc(Nc2ncnc3cc(NC(=O)[C@H](C)Cl)ccc23)c1
GI50 [1]: 3.18 µM | TGI [1]: > 62.5 µM | GI50 [2]: 2.21 µM | TGI [2]: > 62.5 µM | GI50 [3]: 2.35 µM | TGI [3]: > 62.5 µM | GI50 [4]: 3.75 µM | TGI [4]: > 62.5 µM | GI50 [5]: 1.4 µM | TGI [5]: 4.3 µM | GI50 [6]: 2.42 µM | TGI [6]: > 62.5 µM | GI50 [7]: 3.52 µM | TGI [7]: > 62.5 µM | GI50 [8]: 4.3 µM | TGI [8]: > 62.5 µM | GI50 [9]: 2.6 µM | TGI [9]: > 62.5 µM | GI50 [10]: 7.94 µM | TGI [10]: > 62.5 µM

O=C(NCc1ccco1)c1cccc(NC2=C(Cl)C(=O)N(Cc3ccccc3)C2=O)c1
GI50 [1]: 19.9 µM | TGI [1]: > 100 µM | GI50 [2]: 18.4 µM | TGI [2]: > 100 µM | GI50 [3]: 2.44 µM | TGI [3]: 11 µM | GI50 [4]: 17.3 µM | TGI [4]: > 100 µM | GI50 [5]: 2.33 µM | TGI [5]: 7.39 µM | GI50 [6]: 5.19 µM | TGI [6]: > 100 µM | GI50 [7]: 1.06 µM | TGI [7]: 3.29 µM | GI50 [8]: > 100 µM | TGI [8]: > 100 µM | GI50 [9]: 14.1 µM | TGI [9]: 87.2 µM | GI50 [10]: 3.24 µM | TGI [10]: 18.6 µM

COc1ccc(C2C=C(c3ccc(Cl)cc3)N=C3SC=C(C)N32)c(Br)c1 (centres undefined)
GI50 [1]: 3 µM | TGI [1]: 24.7 µM | GI50 [2]: 3.62 µM | TGI [2]: 12.7 µM | GI50 [3]: 3.62 µM | TGI [3]: 20.4 µM | GI50 [4]: 4.72 µM | TGI [4]: 22.1 µM | GI50 [5]: 3.02 µM | TGI [5]: 14.9 µM | GI50 [6]: 4.12 µM | TGI [6]: > 100 µM | GI50 [7]: 2.18 µM | TGI [7]: 9.67 µM | GI50 [8]: 3.17 µM | TGI [8]: 13.1 µM | GI50 [9]: 3.77 µM | TGI [9]: 16.7 µM | GI50 [10]: 3.26 µM | TGI [10]: 15.4 µM
